According to patent US20210220374A1, “METHODS OF TREATING TE[…]” (Clarus Therapeutics, Inc., priority 2013, published 2021):

Experiment: Contingency table classification of C(t) acceptance range as surrogate for Cavg
Design: species or system hypogonadal men
Settings: for Percent of Subjects: Cavg too high & C(t) in range / Percent of Subjects: Cavg too high & C(t) too high / Percent of Subjects: Cavg too low & C(t) in range / Percent of Subjects: Cavg too low & C(t) too low / Percent of Subjects: C(t) in range / Percent of Subjects: C(t) too high / Percent of Subjects: C(t) too low / Percent of Subjects: Cavg in range & C(t) in range / Percent of Subjects: Cavg in range & C(t) too high / Percent of Subjects: Cavg in range & C(t) too low: Cavg 300-1000 ng/dL; for Percent of subjects: Cavg in Range F & C(t) in Range F (total of too high and too low): Cavg 300-1000
Description: For the contingency table approach, the number and percentage of subjects that fell into each of the following seven categories were enumerated, for each of the candidate time points, and for each candidate target range for Cavg, and for each candidate acceptance range for C(t). • 1. Subjects with Cavg within range and with C(t) within range • 2. Subjects with Cavg below range and with C(t) below range • 3. Subjects with Cavg above range and with C(t) above range • 4. Subjects with Cavg within range but with C(t) below range • 5. Subjects with Cavg within range but with C(t) above range • 6. Subjects with Cavg below range, but with C(t) within range • 7. Subjects with Cavg above range, but with C(t) within range
If one defines a value as being “within range” as positive, and being “outside of range” as negative, then Group 1 is subjects that are “true positives”, Groups 2 and 3 are “true negatives”, groups 4 and 5 are “false negatives”, and groups 6 and 7 are “false positives”. Groups, 1, 2 and 3 represent successful predictions because C(t) is an appropriate surrogate for Cavg; Groups 4, 5, 6 and 7 are prediction failures because C(t) is an inaccurate surrogate for Cavg.
Correlations and contingency table calculations were performed using built-in functions in the Excel module of Microsoft Office 2003 (Redmond, Wash.). Graphs were produced using the built-in charting capabilities of Excel.

[1] = C(6) alternate, C(t) acceptance 250-1700
[2] = targeted Cavg 300-1000 ng/dL, 200 mg T BID as TU

Which results are given for `CCCCCCCCCCC(=O)O[C@H]1CC[C@H]2[C@@H]3CCC4=CC(=O)CC[C@]4(C)[C@H]3CC[C@]12C` [TU, testosterone undecanoate]?
Percent of Subjects: Cavg too high & C(t) in range (C(4), C(t) acceptance 250-1700): 4.9%; Percent of Subjects: Cavg too high & C(t) too high (C(4), C(t) acceptance 250-1700): 2.4%; Percent of Subjects: Cavg too low & C(t) in range (C(4), C(t) acceptance 250-1700): 2.4%; Percent of Subjects: Cavg too low & C(t) too low (C(4), C(t) acceptance 250-1700): 9.8%; Percent of subjects: Cavg in Range F & C(t) in Range F (total of too high and too low) (C(4), C(t) acceptance 250-1700): 12.2%; Percent of Subjects: C(t) in range (C(5), C(t) acceptance 250-1400): 82.9%; Percent of Subjects: C(t) too high (C(5), C(t) acceptance 250-1400): 4.9%; Percent of Subjects: C(t) too low (C(5), C(t) acceptance 250-1400): 12.2%; Percent of Subjects: Cavg in range & C(t) in range (C(5), C(t) acceptance 250-1400): 75.6%; Percent of Subjects: Cavg in range & C(t) too high (C(5), C(t) acceptance 250-1400): 2.4%; Percent of Subjects: Cavg in range & C(t) too low (C(5), C(t) acceptance 250-1400): 2.4%; Percent of Subjects: Cavg too high & C(t) in range (C(5), C(t) acceptance 250-1400): 4.9%; Percent of Subjects: Cavg too high & C(t) too high (C(5), C(t) acceptance 250-1400): 2.4%; Percent of Subjects: Cavg too low & C(t) in range (C(5), C(t) acceptance 250-1400): 2.4%; Percent of Subjects: Cavg too low & C(t) too low (C(5), C(t) acceptance 250-1400): 9.8%; Percent of subjects: Cavg in Range F & C(t) in Range F (total of too high and too low) (C(5), C(t) acceptance 250-1400): 12.2%; Percent of Subjects: C(t) in range [1]: 90.2%; Percent of Subjects: C(t) too high [1]: 0.0%; Percent of Subjects: C(t) too low [1]: 9.8%; Percent of Subjects: Cavg in range & C(t) in range [1]: 80.5%; Percent of Subjects: Cavg in range & C(t) too high [1]: 0.0%; Percent of Subjects: Cavg in range & C(t) too low [1]: 0.0%; Percent of Subjects: Cavg too high & C(t) in range [1]: 7.3%; Percent of Subjects: Cavg too high & C(t) too high [1]: 0.0%; Percent of Subjects: Cavg too low & C(t) in range [1]: 2.4%; Percent of Subjects: Cavg too low & C(t) too low [1]: 9.8%; Percent of subjects: Cavg in Range F & C(t) in Range F (total of too high and too low) [1]: 9.8%; Percent of Subjects: C(t) in range (C(6), C(t) acceptance 250-1100): 75.6%; Percent of Subjects: C(t) too high (C(6), C(t) acceptance 250-1100): 14.6%; Percent of Subjects: C(t) too low (C(6), C(t) acceptance 250-1100): 9.8%; Percent of Subjects: Cavg in range & C(t) in range (C(6), C(t) acceptance 250-1100): 73.2%; Percent of Subjects: Cavg in range & C(t) too high (C(6), C(t) acceptance 250-1100): 7.3%; Percent of Subjects: Cavg in range & C(t) too low (C(6), C(t) acceptance 250-1100): 0.0%; Percent of Subjects: Cavg too high & C(t) in range (C(6), C(t) acceptance 250-1100): 0.0%; Percent of Subjects: Cavg too high & C(t) too high (C(6), C(t) acceptance 250-1100): 7.3%; Percent of Subjects: Cavg too low & C(t) in range (C(6), C(t) acceptance 250-1100): 2.4%; Percent of Subjects: Cavg too low & C(t) too low (C(6), C(t) acceptance 250-1100): 9.8%; Percent of subjects: Cavg in Range F & C(t) in Range F (total of too high and too low) (C(6), C(t) acceptance 250-1100): 17.1%; Percent of Subjects: C(t) in range (C(8), C(t) acceptance 200-1300): 95.1%; Percent of Subjects: C(t) too high (C(8), C(t) acceptance 200-1300): 4.9%; Percent of Subjects: C(t) too low (C(8), C(t) acceptance 200-1300): 0.0%; Percent of Subjects: Cavg in range & C(t) in range (C(8), C(t) acceptance 200-1300): 80.5%; Percent of Subjects: Cavg in range & C(t) too high (C(8), C(t) acceptance 200-1300): 0.0%; Percent of Subjects: Cavg in range & C(t) too low (C(8), C(t) acceptance 200-1300): 0.0%; Percent of Subjects: Cavg too high & C(t) in range (C(8), C(t) acceptance 200-1300): 2.4%; Percent of Subjects: Cavg too high & C(t) too high (C(8), C(t) acceptance 200-1300): 4.9%; Percent of Subjects: Cavg too low & C(t) in range (C(8), C(t) acceptance 200-1300): 12.2%; Percent of Subjects: Cavg too low & C(t) too low (C(8), C(t) acceptance 200-1300): 0.0%; Percent of subjects: Cavg in Range F & C(t) in Range F (total of too high and too low) (C(8), C(t) acceptance 200-1300): 4.9%; Percent of Subjects: C(t) in range (C(12), C(t) acceptance 100-680): 92.7%; Percent of Subjects: C(t) too high (C(12), C(t) acceptance 100-680): 4.9%; Percent of Subjects: C(t) too low (C(12), C(t) acceptance 100-680): 2.4%; Percent of Subjects: Cavg in range & C(t) in range (C(12), C(t) acceptance 100-680): 80.5%; Percent of Subjects: Cavg in range & C(t) too high (C(12), C(t) acceptance 100-680): 0.0%; Percent of Subjects: Cavg in range & C(t) too low (C(12), C(t) acceptance 100-680): 0.0%; Percent of Subjects: Cavg too high & C(t) in range (C(12), C(t) acceptance 100-680): 2.4%; Percent of Subjects: Cavg too high & C(t) too high (C(12), C(t) acceptance 100-680): 4.9%; Percent of Subjects: Cavg too low & C(t) in range (C(12), C(t) acceptance 100-680): 9.8%; Percent of Subjects: Cavg too low & C(t) too low (C(12), C(t) acceptance 100-680): 2.4%; Percent of subjects: Cavg in Range F & C(t) in Range F (total of too high and too low) (C(12), C(t) acceptance 100-680): 7.3%; Percent of Subjects: Cavg in range [2]: 80.5%; Percent of Subjects: Cavg to low [2]: 12.2%; Percent of Subjects: Cavg too high [2]: 7.3%
